Results: patent US12180226B2, “Spirotricycle RIPK1 inhibitors and methods of uses thereof” (Merck Sharp & Dohme LLC, priority 2021, dated 2024)
Counter-ions that a name gives are not always drawn.

Molecular target: RIPK1 (recombinant GST-RIPK1 kinase domain, residues 1-327) (Homo sapiens (Human), UniProt Q13546)
Experiment: RIPK1-ADP-Glo Enzymatic Assay
Format: biochemical
Conditions: ADP-Glo; 25 nM GST-RIPK1, 300 μM ATP; assay lower limit ~25 nM; read-out: RIPK1 V0 Ec50
In short: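 Compounds titrated 10-pt 1:3 from 100000 nM top (1% DMSO); 30 min preinc w/ 25 nM Sf21-expressed enzyme, RT; start w/ ATP (300 μM final) + dephos-MBP (3 μM); 150 min; ADP-Glo lumi; 4-param fit → EC50.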

Chain of RIPK1 (recombinant GST-RIPK1 kinase domain, residues 1-327) (Q13546 1-327): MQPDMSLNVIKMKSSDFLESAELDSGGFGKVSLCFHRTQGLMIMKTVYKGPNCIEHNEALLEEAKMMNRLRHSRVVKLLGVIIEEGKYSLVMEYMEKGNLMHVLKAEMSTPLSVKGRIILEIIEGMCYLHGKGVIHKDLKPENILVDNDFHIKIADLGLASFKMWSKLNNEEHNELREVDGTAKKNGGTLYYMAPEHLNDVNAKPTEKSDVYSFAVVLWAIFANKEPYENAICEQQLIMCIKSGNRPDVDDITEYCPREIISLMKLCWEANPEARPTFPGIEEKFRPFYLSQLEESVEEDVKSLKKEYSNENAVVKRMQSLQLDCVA

Compound	EC50
Cc1cc2nccc(N3CCC4(CC3)O[C@@H]3CC[C@@H](c5cc(F)cc(F)c5)N3C4=O)n2n1 [Example 4.85, (5′S,7a′R)-5′-(3,5-difluorophenyl)-1-(2-methylpyrazolo[1,5-a]pyrimidin-7-yl)tetrahydro-3′H-spiro[piperidine-4,2′-pyrrolo[2,1-b]oxazol]-3′-one, TFA salt]	63.4 nM
O=C1N2[C@@H](CC[C@H]2c2cc(F)cc(F)c2)OC12CCN(c1ccc(Cl)c3ccnn13)CC2 [Example 15.1, (5′S,7a′R)-1-(4-chloropyrazolo[1,5-a]pyridin-7-yl)-5′-(3,5-difluorophenyl)tetrahydro-3′H-spiro[piperidine-4,2′-pyrrolo[2,1-b]oxazol]-3′-one, TFA]	< 25 nM
N#Cc1cc(N2CCC3(CC2)O[C@@H]2CC[C@@H](c4ccccc4F)N2C3=O)ncn1 [Example 4.104, 6-((5′S,7a′R)-5′-(2-fluorophenyl)-3′-oxotetrahydro-3′H-spiro[piperidine-4,2′-pyrrolo[2,1-b]oxazol]-1-yl)pyrimidine-4-carbonitrile]	33.9 nM
CC1CN(c2cc(C#N)ncn2)CCC12O[C@@H]1CC[C@@H](c3ccccc3)N1C2=O (stereo partly drawn) [Example 4.237, 6-[(4R,5′S,7a′R)-3-methyl-3′-oxo-5′-phenyltetrahydro-1H,3′H-spiro[piperidine-4,2′-pyrrolo[2,1-b] [1,3]oxazol]-1-yl]pyrimidine-4-carbonitrile]	< 25 nM
NC(=O)c1ccc(N2CCC3(CC2)O[C@@H]2CC[C@@H](c4cccc(F)c4)N2C3=O)n2ncnc12 [Example 4.152, 5-[(5′S,7a′R)-5′-(3-fluorophenyl)-3′-oxotetrahydro-1H,3′H-spiro[piperidine-4,2′-pyrrolo[2,1-b] [1,3]oxazol]-1-yl][1,2,4]triazolo[1,5-a] pyridine-8-carboxamide]	< 25 nM
NC(=O)c1ccc(N2CCC3(CC2)O[C@@H]2CC[C@@H](c4ccccc4)N2C3=O)nc1 [Example 4.199, 6-[(5′S,7a′R)-3′-oxo-5′-phenyltetrahydro-1H,3′H-spiro[piperidine-4,2′-pyrrolo[2,1-b] [1,3]oxazol]-1-yl]pyridine-3-carboxamide]	36.2 nM
O=C1N2[C@@H](CC[C@H]2c2ccccc2F)OC12CCN(c1ncnc3ccnn13)CC2 [Example 4.252, (5′S,7a′R)-5′-(2-fluorophenyl)-1-(pyrazolo[1,5-a] [1,3,5]triazin-4-yl)tetrahydro-3′H-spiro[piperidine-4,2′-pyrrolo[2,1-b] [1,3]oxazol]-3′-one]	< 25 nM
O=C1N2[C@H](OC13CCN(c1ccnc4ccnn14)CC3)[C@@H](O)C[C@H]2c1ccccc1 [Example 4.251, (5′S,7′S,7a′R)-7′-hydroxy-5′-phenyl-1-(pyrazolo [1,5-a]pyrimidin-7-yl)tetrahydro-3′H-spiro[piperidine-4,2′-pyrrolo[2,1-b] [1,3]oxazol]-3′-one]	< 25 nM
O=C(c1cc(F)ccc1F)N1CC2(C1)O[C@@H]1CC[C@@H](c3cc(F)cc(F)c3)N1C2=O [Example 1.20, (5′S,7a′R)-1-(2,5-difluorobenzoyl)-5′-(3,5-difluorophenyl)tetrahydro-3′H-spiro[azetidine-3,2′-pyrrolo[2,1-b]oxazol]-3′-one]	41.7 nM
CN(C)C(=O)c1ccc(N2CCC3(CC2)O[C@@H]2CC[C@@H](c4ccccc4)N2C3=O)nc1 [Example 4.167, N,N-dimethyl-6-[(5′S,7a′R)-3′-oxo-5′-phenyltetrahydro-1H,3′H-spiro[piperidine-4,2′-pyrrolo[2,1-b] [1,3]oxazol]-1-yl]pyridine-3-carboxamide]	259 nM
N#Cc1cc(N2CCC3(CC2)O[C@@H]2CC[C@@H](c4ccccc4)N2C3=O)ncn1 [Example 4.40, 6-[(5′S,7a′R)-3′-oxo-5′-phenyltetrahydro-1H,3′H-spiro[piperidine-4,2′-pyrrolo[2,1-b] [1,3]oxazol]-1-yl]pyrimidine-4-carbonitrile]	32.2 nM
O=C1N2[C@@H](CC[C@H]2c2ccccc2F)OC12CCN(c1ncc(Br)c3ncnn13)CC2 [Example 4.240, (5′S,7a′R)-1-(8-bromo [1,2,4]triazolo[1,5-c]pyrimidin-5-yl)-5′-(2-fluorophenyl)tetrahydro-3′H-spiro[piperidine-4,2′-pyrrolo[2,1-b] [1,3]oxazol]-3′-one]	< 25 nM

Further lines, results first:

EC50	Compound
62.2 nM	O=C(c1cccc2c1CCC2)N1CCC2(CC1)O[C@@H]1CC[C@@H](c3cc(F)cc(F)c3)N1C2=O [Example 5.29, (5′S,7a′R)-5′-(3,5-difluoro-phenyl)-1-(2,3-dihydro-1H-indene-4-carbonyl)-tetrahydro-3′H-spiro [piperidine-4,2′-pyrrolo-[2,1-b]oxazol]-3′-one]
885 nM	O=C1N2C(=NC13CCN(c1cc(F)ccn1)CC3)CC[C@H]2c1cc(F)cc(F)c1 [Example 11.1]
< 25 nM	O=C(c1cccc(Cl)c1F)N1CCC2(CC1)O[C@@H]1CC[C@@H](c3cc(F)cc(F)c3)N1C2=O [Example 5.60, (5′S,7a′R)-1-(3-chloro-2-fluorobenzoyl)-5′-(3,5-difluorophenyl)tetrahydro-3′H-spiro[piperidine-4,2′-pyrrolo[2,1-b]oxazol]-3′-one]
32 nM	O=C1N2[C@@H](CC[C@H]2c2cc(F)cc(F)c2)OC12CCN(c1ccc(Cl)c3nccn13)CC2 [Example 13.16, (5′S,7a′R)-1-(8-chloroimidazo[1,2-a]pyridin-5-yl)-5′-(3,5-difluorophenyl)tetrahydro-3′H-spiro[piperidine-4,2′-pyrrolo[2,1-b]oxazol]-3′-one, TFA salt]
165 nM	N#CC1(NC(=O)c2nc(N3CCC4(CC3)O[C@@H]3CC[C@@H](c5cc(F)cc(F)c5)N3C4=O)ncc2F)CC1 [Example 7.12, N-(1-cyanocyclopropyl)-2-[(5′S,7a′R)-5′-(3,5-difluorophenyl)-3'-oxotetrahydro-1H,3′H-spiro[piperidine-4,2′-pyrrolo[2,1-b][1,3]oxazol]-1-yl]-5-fluoropyrimidine-4-carboxamide]
< 25 nM	O=C1N2[C@@H](CC[C@H]2c2cc(F)cc(F)c2)OC12CCN(c1nccn3nccc13)CC2 [Example 13.12, (5′S,7a′R)-5′-(3,5-difluorophenyl)-1-(pyrazolo[1,5-a]pyrazin-4-yl)tetrahydro-3′H-spiro[piperidine-4,2′-pyrrolo[2,1-b]oxazol]-3′-one, TFA salt]
< 25 nM	O=C(c1cccc(N2CCCC2=O)c1)N1CCC2(CC1)O[C@@H]1CC[C@@H](c3cc(F)cc(F)c3)N1C2=O [Example 6.56, (5′S,7a′R)-5′-(3,5-difluorophenyl)-1-[3-(2-oxopyrrolidin-1-yl)benzene-1-carbon-yl]tetrahydro-3′H-spiro[piperidine-4,2′-pyrrolo[2,1-b][1,3]-oxazol]-3′-one]
208 nM	N#Cc1cscc1[C@@H]1CC[C@H]2OC3(CCN(C(=O)c4ccccc4)CC3)C(=O)N21 [Example 17.13, 4-((5′S,7a′R)-1-benzoyl-3′-oxotetrahydro-3′H-spiro[piperidine-4,2′-pyrrolo[2,1-b]oxazol]-5′-yl)thiophene-3-carbonitrile]
40.7 nM	COc1cc(F)cc([C@@H]2CC[C@H]3OC4(CCN(C(=O)c5ccccc5)CC4)C(=O)N32)c1 [Example 17.9, (5′S,7a′R)-1-benzoyl-5′-(3-fluoro-5-methoxyphenyl)tetrahydro-3′H-spiro[piperidine-4,2′-pyrrolo[2,1-b]oxazol]-3′-one]
61.1 nM	O=C1N2[C@@H](CC[C@H]2c2ccccc2)OC12CCN(c1ncc(F)cc1C(F)F)CC2 [Example 11.25, (5′S,7a′R)-1-[3-(difluoromethyl)-5-fluoropyridin-2-yl]-5′-phenyltetrahydro-3′H-spiro[piperidine-4,2′-pyrrolo[2,1-b][1,3]oxazol]-3′-one]
146 nM	O=C(c1ccnnc1)N1CCC2(CC1)O[C@@H]1CC[C@@H](c3cc(F)cc(F)c3)N1C2=O [Example 6.99, (5′S,7a′R)-5′-(3,5-difluorophenyl)-1-(pyridazine-4-carbon-yl)tetrahydro-3′H-spiro[piperidine-4,2′-pyrrolo[2,1-b][1,3]-oxazol]-3′-one]
< 25 nM	O=C(c1cccc(F)c1)N1CCC2(CC1)O[C@@H]1CC[C@@H](c3cccc(F)c3)N1C2=O [Example 6.116, (5′S,7a′R)-1-(3-fluoro-benzene-1-carbonyl)-5′-(3-fluorophenyl)-tetrahydro-3′H-spiro [piperidine-4,2′-pyrrolo[2,1-b][1,3]oxazol]-3′-one]
253 nM	Cc1cc(N2CCC3(CC2)O[C@@H]2CC[C@@H](c4ccccc4)N2C3=O)cs1 [Example 11.10, (5′S,7a′R)-1-(5-methylthiophen-3-yl)-5′-phenyltetrahydro-3′H-spiro[piperidine-4,2′-pyrrolo[2,1-b][1,3]oxazol]-3′-one]
< 25 nM	COc1cccc(C(=O)N2CCC3(CC2)O[C@@H]2CC[C@@H](c4cc(F)cc(F)c4)N2C3=O)c1F [Example 6.7, (5′S,7a′R)-5′-(3,5-difluorophenyl)-1-(2-fluoro-3-methoxy-benzene-1-carbonyl) tetrahydro-3′H-spiro [piperidine-4,2′-pyrrolo[2,1-b][1,3]oxazol]-3′-one]
< 25 nM	N#Cc1ccc(N2CCC3(O[C@@H]4CC[C@@H](c5ccccc5)N4C3=O)C(F)C2)n2ncnc12 (stereo partly drawn) [Example 4.258, 5-[(5′S,7a′R)-3-fluoro-3′-oxo-5′-phenyltetrahydro-1H,3′H-spiro[piperidine-4,2′-pyrrolo[2,1-b] [1,3]oxazol]-1-yl][1,2,4]triazolo[1,5-a] pyridine-8-carbonitrile]
275 nM	CC1C[C@@]2(CCN1C(=O)c1ccccc1)O[C@@H]1CC[C@@H](c3cccc(F)c3)N1C2=O (stereo partly drawn) [Example 6.161, (4R,5′S,7a′R)-1-(benzenecarbonyl)-5′-(3-fluorophenyl)-2-methyltetrahydro-3′H-spiro[piperidine-4,2′-pyrrolo[2,1-b][1,3]-oxazol]-3′-one]
